Laboratory results as given in patent publication US20040265265A1, “Odor control composition and process” (H&S CHEMICAL COMPANY, INC., priority 2001, published 2004).

Experiments:
[1] = stability of solutions as a function of pH; type: physicochemical; settings: below a pH of 6
From the text: As is discussed above the pH range for CHT and CH-BENZ solutions for use in this invention can be from about 6- 14. […] While the solutions of this invention are effective above a pH of 10.0, solutions having a pH of 10.0 can only be used for industrial applications, due to their caustic nature.
This stability is important in domestic applications of this invention where long shelf life is very desirable.

[2] = limit of solubility in water; settings: at room temperature in water

| Structure (SMILES) | stability in acidic medium [1] | limit of solubility [2] |
| --- | --- | --- |
| Cc1ccc(S(=O)(=O)[N-]Cl)cc1.[Na+] [CHT, Chloramine-T] | tend to decompose | about 15% |
| O=C([O-])c1ccc(S(=O)(=O)NCl)cc1.[Na+] [CH-BENZ, N-Chloro-4-Carboxybenzenesulfonamide sodium salt] | tend to decompose | about 20% |
